Literature values, collected in US6387950B2, “Treatment of tumors with RARα selective retinoid compounds in combination with other anti-tumor agents” (Allergan Sales, Inc., priority 2000, dated 2002).

Assays:
[1] = tested on: carcinoma cell lines; conditions: in some of the cell lines; Fanjul et al. 1996; cited from earlier work
[2] = molecular target: T1, RARγ receptors (Homo sapiens, UniProt P13631); conditions: Fanjul et al. 1996; cited from earlier work
T1 sequence (P13631 1-454): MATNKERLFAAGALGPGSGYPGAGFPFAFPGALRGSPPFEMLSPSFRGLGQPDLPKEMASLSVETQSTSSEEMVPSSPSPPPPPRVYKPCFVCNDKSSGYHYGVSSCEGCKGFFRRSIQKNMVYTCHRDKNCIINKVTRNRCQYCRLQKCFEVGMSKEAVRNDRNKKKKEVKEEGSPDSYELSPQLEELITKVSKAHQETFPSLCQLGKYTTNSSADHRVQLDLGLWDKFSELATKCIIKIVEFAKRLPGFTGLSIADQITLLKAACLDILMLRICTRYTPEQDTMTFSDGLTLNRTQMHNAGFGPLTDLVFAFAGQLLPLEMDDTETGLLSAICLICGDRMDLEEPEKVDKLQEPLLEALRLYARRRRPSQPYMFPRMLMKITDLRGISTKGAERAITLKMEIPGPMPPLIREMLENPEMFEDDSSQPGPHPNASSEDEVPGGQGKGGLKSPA

[3] = tested on: MCF-7 human breast cancer lines; conditions: Toma et al. 1997; cited from earlier work
[4] = tested on: MDA-MB 231 human carcinoma cell lines; conditions: Kurbacher et al. 1996; cited from earlier work
[5] = tested on: MCF-7 human carcinoma cell lines; conditions: Kurbacher et al. 1996; cited from earlier work

## COC(=O)c1ccc(/C(C)=C/c2ccc3c(c2)C(C)(C)CCC3(C)C)cc1 [SRI 11220]
[1]
  anti-proliferative activity in combination with interferon: synergistic
[2]
  receptor activity: RARγ agonist

## CC1=C(/C=C/C(C)=C/C=C/C(C)=C/C(=O)O)C(C)(C)CCC1 [all trans retinoic acid]
[3]
  effect in combination with tamoxifen (TAM): synergistic effect
  effect in combination with α interferon (α IFN): synergistic effects

## O=C1O[C@H]([C@@H](O)CO)C(O)=C1O [vitamin C]
[4]
  action with certain chemotherapeutic anti-tumor agents: synergistic action
[5]
  action with certain chemotherapeutic anti-tumor agents: synergistic action
